# Experimental data: US6610708B1, “Cyclic amino compounds” (Sankyo Company, Limited, priority 1998, dated 2003)
# What was measured:
# [1] = tested on: Human Platelets; assay: Antiaggregatory action in human platelets (ADP-induced aggregation in platelet-rich plasma); format: cell-based; conditions: human PRP; for inhibition at 10 µg/mL / inhibition at 30 µg/mL / inhibition at 100 µg/mL: Platelet, read-out: Test 1 (% inhibition) of platelet aggregation
# Procedure: Antiaggregatory Action in Human Platelets
# Platelet aggregation was measured using an automatic platelet aggregometer (PAM-8C, Mebanix) using the method of G.V.R. Born [Nature, 194, 927-929 ([…])] with a slight modification. Blood was collected from the antecubital vein of healthy volunteers who had not taken any medications for two weeks using 3.8% sodium citrate as an anticoagulant ( 1/9 volumes of blood). Platelet-rich plasma (PRP) was obtained by centrifugation (CR5DL, Hitachi) at 200× g for 15 min at room temperature. Platelet-poor plasma (PPP) was obtained by centrifugation of the remaining blood at 2,000× g for 10 min at room temperature. Platelet counts in PRP were measured by an automatic hematology analyzer (K-1000, Toa Iyo Denshi), and adjusted to 3×10^8 /ml by adding PPP. PRP prepared as described above was used for the platelet aggregation experiment. PRP (0.24 ml) containing a test compound was added to a cuvette and set placed in the platelet aggregometer. After pre-incubation for 1.5 min at 37° C., 0.01 ml of 0.25 mM ADP were added to the cuvette to induce platelet aggregation. Platelet aggregation was monitored for 10 min.
# Antiaggregatory action of the test compound was determined as a percent inhibition (%) against platelet aggregation of a control (free of the test compound).
Structure (SMILES),melting point,inhibition at 10 µg/mL ([1]; 10 μg/ml test compound),inhibition at 30 µg/mL ([1]; 30 μg/ml test compound),inhibition at 100 µg/mL ([1]; 100 μg/ml test compound),also measured
"COC(=O)C(c1ccccc1Cl)N1CCC(SS(=O)(=O)c2ccc(C)cc2)CC1 (stereo not drawn) [Example 2 (d), 1-(2-Chloro-α-methoxycarbonylbenzyl)-4-(4-methylphenylsulfonylthio)-piperidine]",,32.8%,97.1%,98%,
"COC(=O)C(c1ccccc1Cl)N1CCC(SS(=O)(=O)c2ccc(C)cc2)CC1 (stereo not drawn) [Example 2, 1-(2-Chloro-α-methoxycarbonylbenzyl)-4-(4-methylphenylsulfonylthio)-piperidine]",100 to 115 °C,,,,
"COC(=O)C(c1ccccc1F)N1CCC(SS(=O)(=O)c2ccc(C)cc2)CC1 (stereo not drawn) [Example 3 (d), 1-(2-Fluoro-α-methoxycarbonylbenzyl)-4-(4-methylphenylsulfonylthio)-piperidine]",,24.4%,89.3%,99.8%,
"Cc1ccc(S(=O)(=O)SC2CCN(C(C(=O)C3CC3)c3ccccc3F)C2)cc1 (stereo not drawn) [Example 4 (d), 1-(α-Cyclopropylcarbonyl-2-fluorobenzyl)-3-(4-methylphenylsulfonylthio)-pyrrolidine]",,30.6%,77.6%,99.5%,
"Cc1ccc(S(=O)(=O)SC2CN(C(C(=O)C3CC3)c3ccccc3F)C2)cc1 (stereo not drawn) [Example 5 (d), 1-(α-Cyclopropylcarbonyl-2-fluorobenzyl)-3-(4-methylphenylsulfonylthiol)-azetidine]",,,,,Test 1 (% inhibition) of platelet aggregation ([1]; 10 μg/ml test compound): 37.1%; Test 1 (% inhibition) of platelet aggregation ([1]; 30 μg/ml test compound): 98.4%; Test 1 (% inhibition) of platelet aggregation ([1]; 100 μg/ml test compound): 99.6%
"CCOC(=O)/C=C1\CN(C(C(=O)C2CC2)c2ccccc2F)CCC1SS(=O)(=O)c1ccc(C)cc1 (stereo not drawn) [Example 6, (E)-1-(α-Cyclopropylcarbonyl-2-fluorobenzyl)-3-ethoxycarbonylmethylidene-4-(4-methylphenylsulfonylthio)piperidine]",94 to 103 °C,,,,
"COC(=O)/C=C1\CN(C(C(=O)OC)c2ccccc2Cl)CCC1SS(=O)(=O)c1ccc(C)cc1 (stereo not drawn) [Example 7 (ii), (E)-1-(2-Chloro-α-methoxycarbonylbenzyl)-3-methoxycarbonylmethylidene-4-(4-methylphenylsulfonylthio)piperidine]",144 to 146 °C,34.5%,81.5%,,
"O=C(C1CC1)C(c1ccccc1F)N1CCC(SS(=O)(=O)c2ccccc2)CC1 (stereo not drawn) [Example 9 (b), 1-(α-Cyclopropylcarbonyl-2-fluorobenzyl)-4-phenylsulfonylthiopiperidine]",,23.4%,97.3%,94%,
"O=C(C1CC1)C(c1ccccc1F)N1CCC(SS(=O)(=O)c2ccc(Cl)cc2)CC1 (stereo not drawn) [Example 10 (b), 4-(4-Chlorophenylsulfonylthio)-1-(α-cyclopropylcarbonyl-2-fluorobenzyl)-piperidine]",,35.2%,96.2%,98.8%,
"O=C(C1CC1)C(c1ccccc1F)N1CCC(SS(=O)(=O)c2ccc(Cl)cc2)CC1 (stereo not drawn) [Example 10, 4-(4-Chlorophenylsulfonylthio)-1-(α-cyclopropylcarbonyl-2-fluorobenzyl)-piperidine]",108 to 116 °C,,,,
"O=C(C1CC1)C(c1ccccc1F)N1CCC(SS(=O)(=O)c2ccc(F)cc2)CC1 (stereo not drawn) [Example 11 (b), 1-(α-Cyclopropylcarbonyl-2-fluorobenzyl)-4-(4-fluorophenylsulfonylthio)-piperidine]",,15.5%,98%,92.5%,
"COc1ccc(S(=O)(=O)SC2CCN(C(C(=O)C3CC3)c3ccccc3F)CC2)cc1 (stereo not drawn) [Example 12 (b), 1-(α-Cyclopropylcarbonyl-2-fluorobenzyl)-4-(4-methoxyphenylsulfonylthio)piperidine]",,19.2%,93.9%,100%,
"COc1ccc(S(=O)(=O)SC2CCN(C(C(=O)C3CC3)c3ccccc3F)CC2)cc1 (stereo not drawn) [Example 12, 1-(α-Cyclopropylcarbonyl-2-fluorobenzyl)-4-(4-methoxyphenylsulfonylthio)piperidine]",113 to 122 °C,,,,
"Cc1ccc([S+]([O-])SC2CCN(C(C(=O)C3CC3)c3ccccc3F)CC2)cc1 (stereo not drawn) [Example 13 (b), 1-(α-Cyclopropylcarbonyl-2-fluorobenzyl)-4-(4-methylphenylsulfinylthio)-piperidine]",,13.3%,40%,91.8%,
"Cc1ccc([S+]([O-])SC2CCN(C(C(=O)C3CC3)c3ccccc3F)CC2)cc1 (stereo not drawn) [Example 13, 1-(α-Cyclopropylcarbonyl-2-fluorobenzyl)-4-(4-methylphenylsulfinylthio)-piperidine]",110 to 118 °C,,,,
"Cc1ccc([S+]([O-])SC2CCN(C(C(=O)C3CC3)c3ccccc3F)C2)cc1 (stereo not drawn) [Example 14 (b), 1-(α-Cyclopropylcarbonyl-2-fluorobenzyl)-3-(4-methylphenylsulfinylthio)-pyrrolidine]",,28.6%,64%,95.8%,
"C[S+]([O-])SC1CCN(C(C(=O)C2CC2)c2ccccc2F)CC1 (stereo not drawn) [Example 15 (b), 1-(α-Cyclopropylcarbonyl-2-fluorobenzyl)-4-methylsulfinylthiopiperidine]",,12.3%,28.1%,71.1%,
"O=C(C1CC1)C(c1ccccc1F)N1CCC(SSc2ccccc2[N+](=O)[O-])CC1 (stereo not drawn) [Example 18, 1-(α-Cyclopropylcarbonyl-2-fluorobenzyl)-4-(2-nitrophenyldisulfanyl)-piperidine]",110 to 116 °C,,,,
"N[C@@H](CSSC1CCN(C(C(=O)C2CC2)c2ccccc2F)C/C1=C/C(=O)O)C(=O)O (stereo partly drawn) [Example 19, (Z)-4-[(R)-2-Amino-2-carboxyethyldisulfanyl]-3-carboxymethylidene-1-(α-cyclopropylcarbonyl-2-fluorobenzyl)piperidine]",135 to 138 °C,,,,

# Second part, led by results:
melting point,Structure (SMILES),inhibition at 10 µg/mL ([1]; 10 μg/ml test compound),inhibition at 30 µg/mL ([1]; 30 μg/ml test compound),inhibition at 100 µg/mL ([1]; 100 μg/ml test compound),also measured
120 to 127 °C,O=C(C1CC1)C(c1ccccc1F)N1CCC(SSc2ccc([N+](=O)[O-])cc2[N+](=O)[O-])CC1 (centres unmarked),,,,
63 to 69 °C,"Cc1ccc(S(=O)(=O)SC2CCN(C(C(=O)C3CC3)c3ccccc3F)CC2)cc1 (stereo not drawn) [Example 1, 1-(α-Cyclopropylcarbonyl-2-fluorobenzyl)-4-(4-methylphenylsulfonylthio)-piperidine]",36.5%,99.6%,100%,
106 to 109 °C,"COC(=O)C(c1ccccc1F)N1CCC(SS(=O)(=O)c2ccc(C)cc2)CC1 (stereo not drawn) [Example 3, 1-(2-Fluoro-α-methoxycarbonylbenzyl)-4-(4-methylphenylsulfonylthio)-piperidine]",,,,
98 to 106 °C,"Cc1ccc(S(=O)(=O)SC2CCN(C(C(=O)C3CC3)c3ccccc3F)C2)cc1 (stereo not drawn) [Example 4, 1-(α-Cyclopropylcarbonyl-2-fluorobenzyl)-3-(4-methylphenylsulfonylthio)-pyrrolidine]",,,,
89 to 91 °C,"CS(=O)(=O)SC1CCN(C(C(=O)C2CC2)c2ccccc2F)CC1 (stereo not drawn) [Example 8, 1-(α-Cyclopropylcarbonyl-2-fluorobenzyl)-4-methylsulfonylthiopiperidine]",19.5%,88%,100%,
105 to 116 °C,"O=C(C1CC1)C(c1ccccc1F)N1CCC(SS(=O)(=O)c2ccccc2)CC1 (stereo not drawn) [Example 9, 1-(α-Cyclopropylcarbonyl-2-fluorobenzyl)-4-phenylsulfonylthiopiperidine]",,,,
110 to 121 °C,"O=C(C1CC1)C(c1ccccc1F)N1CCC(SS(=O)(=O)c2ccc(F)cc2)CC1 (stereo not drawn) [Example 11, 1-(α-Cyclopropylcarbonyl-2-fluorobenzyl)-4-(4-fluorophenylsulfonylthio)-piperidine]",,,,
87 to 100 °C,"Cc1ccc([S+]([O-])SC2CCN(C(C(=O)C3CC3)c3ccccc3F)C2)cc1 (stereo not drawn) [Example 14, 1-(α-Cyclopropylcarbonyl-2-fluorobenzyl)-3-(4-methylphenylsulfinylthio)-pyrrolidine]",,,,
105 to 111 °C,"C[S+]([O-])SC1CCN(C(C(=O)C2CC2)c2ccccc2F)CC1 (stereo not drawn) [Example 15, 1-(α-Cyclopropylcarbonyl-2-fluorobenzyl)-4-methylsulfinylthiopiperidine]",,,,
96 to 103 °C,"Cc1ccc(SSC2CCN(C(C(=O)C3CC3)c3ccccc3F)CC2)cc1 (stereo not drawn) [Example 16, 1-(α-Cyclopropylcarbonyl-2-fluorobenzyl)-4-(4-methylphenyldisulfanyl)-piperidine]",,,,
